≈ marks a conversion by molar mass, not a printed value. Calls of active or inactive are those of the source. The rule behind the calls is not given here. Bounds are passed on as bounds.

Series [1] has as its system Candida tropicalis. Kind of series: Antifungal activity against Candida tropicalis ATCC 200956 by CLSI standard M27 broth microdilution method. The class given is functional. A general note: Broth dilution looks for growth in wells or tubes with falling amounts of substance.
The subject of series [2] is Erythrocyte. Kind of series: Hemolytic activity in human RBC by spectrophotometry. Type of series: ADME, cell-based.
The subject of series [3] is HepG2. Kind of series: Cytotoxicity against human HepG2 cells assessed as reduction in cell viability by XTT assay. The class given is cell-based. For orientation: Tetrazolium assays rely on reduction of a dye to a coloured formazan, in cell work by metabolically active cells.
Series [4] is described as follows: Selectivity index, ratio of HA50 to human RCB to MIC of antifungal activity against Candida tropicalis ATCC 200956. Type of series: toxicity. The following applies: human red blood cells (RCB).
Series [5] is described as follows: Selectivity index, ratio of CC50 of human HepG2 cells to MIC of antifungal activity against Candida tropicalis ATCC 200956. Type of series: toxicity.
For series [6], the system named is [Candida] auris. Kind of series: Antifungal activity against Candida auris CBS 10913 by CLSI standard M27 broth microdilution method. The following applies: Candidozyma auris. Type of series: functional.
Series [7] concerns [Candida] auris. Kind of series: Antifungal activity against Candida auris CBS 12766 by CLSI standard M27 broth microdilution method. The class given is functional. The following applies: Candidozyma auris.
For series [8], the system named is Candida duobushaemulonii. Kind of series: Antifungal activity against Candida duobushaemulonis CBS 7799 by CLSI standard M27 broth microdilution method. The class given is functional. The following applies: Candidozyma duobushaemuli.
Series [9] is described as follows: Antifungal activity against Candida pseudohaemulonis CBS 10004 by broth microdilution method. The class given is functional. The following applies: Candidozyma pseudohaemuli.
For series [10], the system named is Aspergillus fumigatus. Kind of series: Antifungal activity against Aspergillus fumigatus ATCC 16913 by CLSI standard M38 broth microdilution method. The class given is functional, organism-based.
Series [11] relates to Aspergillus niger. Kind of series: Antifungal activity against Aspergillus niger by CLSI standard M38 broth microdilution method. The class given is functional, organism-based.
Series [12] has as its system Cryptococcus neoformans. Kind of series: Fungicidal activity against Cryptococcus neoformans ATCC 208821 assessed as loss of fungal growth by CLSI method. The class given is functional, organism-based.
Series [13] deals with Cryptococcus gattii. Kind of series: Fungicidal activity against Cryptococcus gattii ATCC 56990 assessed as loss of fungal growth by CLSI method. The following applies: Cryptococcus bacillisporus. Type of series: functional, organism-based.

As for `C[C@H]1OC(c2ccc(Cl)cc2O)=N[C@H]1C(=O)OCc1ccccc1`, the MIC – broadly, the lowest concentration that inhibits growth of the organism – was not above 0.03 µg/mL in series [1]; 0.06 µg/mL (≈ 0.174 µM) in series [6]; 2 µg/mL (≈ 5.78 µM) in series [7]; 0.5 µg/mL (≈ 1.45 µM) in series [8]; 0.25 µg/mL (≈ 0.723 µM) in series [9]. This compound had an Activity in [2] of more than 128 µg/mL. Further, the CC50 (commonly the concentration giving 50% cytotoxicity) in [3] is 95 µg/mL (≈ 275 µM). The selectivity ratio in [4] is not below 512; in series [5], not below 380. The inhibition entry in series [10] and in series [11] was “Active” each time. Also, the outcome in series [12] and in [13] was Active.

The values above are taken from ChEMBL document CHEMBL4725493, “Novel 2-Aryloxazoline Compounds Exhibit an Inhibitory Effect on Candida spp., Including Antifungal-Resistant Isolates” (ACS Med Chem Lett, 2020).
